# Laboratory results published in US11414424B2, “Cardiac sarcomere inhibitors” (Cytokinetics, Inc., priority 2018, dated 2022).
# Tested on: bovine cardiac myofibrils
# Assay: Myofibril assay: PK/LDH-coupled steady-state ATPase activity of skinned bovine cardiac myofibrils
# Type: biochemical
# Details: Ca2+ activating to 75% of maximal rate
# Method in brief: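 Steady-state ATPase of detergent-skinned bovine left-ventricular myofibrils (1 mg/mL), PK/LDH-coupled NADH read at 340 nm, in PIPES/MgCl2 buffer pH 6.8 with 50 μM ATP, 0.6 mM EGTA and CaCl2 set for 50% or 75% activation. Inhibition of activity measured.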
row,SMILES,CDMF75 IC15 [nM]
1,"NC(=O)C12CC(C3C(=O)N(c4ncc(Cl)cc4F)CC(=O)N3Cc3ccc(C(F)F)cc3)(C1)C2 (stereo not drawn) [Compound 790, 3-(4-(5-chloro-3-fluoro-pyridin-2-yl)-1-(4-(difluoromethyl)benzyl)-3,6-dioxopiperazin-2-yl)bicyclo[1.1.1]pentane-1-carboxamide]",4900
2,"NC(=O)C12CC(C3C(=O)N(c4ncc(Cl)cc4F)CC(=O)N3Cc3ccc(F)cc3)(C1)C2 (stereo not drawn) [Compound 791, 3-(4-(5-chloro-3-fluoro-pyridin-2-yl)-1-(4-fluoro-benzyl)-3,6-dioxopiperazin-2-yl)bicyclo[1.1.1]pentane-1-carboxamide]",2700
3,"Cc1ccc(CN2C(=O)CN(c3ncc(Cl)cc3F)C(=O)C2C23CC(C(N)=O)(C2)C3)cc1 (stereo not drawn) [Compound 792, 3-(4-(5-chloro-3-fluoro-pyridin-2-yl)-1-(4-methyl-benzyl)-3,6-dioxopiperazin-2-yl)bicyclo[1.1.1]pentane-1-carboxamide]",3800
4,"O=C1CN(c2ccc(Cl)cc2F)C(=O)C2(COC2)N1Cc1ccc(F)cc1 [Compound 799, 8-(4-chloro-2-fluoro-phenyl)-5-(4-fluorobenzyl)-2-oxa-5,8-diazaspiro-[3.5]nonane-6,9-dione]",3900
5,"O=C1CN(c2ncc(Cl)cc2F)C(=O)C2(CC3(COC3)C2)N1Cc1ccc(C(F)(F)F)cc1 [Compound 813, 10-(5-chloro-3-fluoro-pyridin-2-yl)-7-(4-(trifluoro-methyl)benzyl)-2-oxa-7,10-diazadispiro-[3.1.56.14]dodecane-8,11-dione]",400
6,"O=C1CN(c2ncc(Cl)cc2F)C(=O)C2(CC3(COC3)C2)N1Cc1ccc(C(F)F)cc1 [Compound 814, 10-(5-chloro-3-fluoro-pyridin-2-yl)-7-(4-(difluoromethyl)benzyl)-2-oxa-7,10-diazadispiro-[3.1.56.14]dodecane-8,11-dione]",800
7,"O=C1CN(c2ncc(Cl)cc2F)C(=O)C2(CC3(COC3)C2)N1Cc1ccc(F)cc1 [Compound 815, 10-(5-chloro-3-fluoro-pyridin-2-yl)-7-(4-Fluorobenzyl)-2-oxa-7,10-diazadispiro-[3.1.56.14]dodecane-8,11-dione]",700
8,"Cc1ccc(CN2C(=O)CN(c3ncc(Cl)cc3F)C(=O)C23CC2(COC2)C3)cc1 [Compound 816, 10-(5-chloro-3-fluoro-pyridin-2-yl)-7-(4-methyl-benzyl)-2-oxa-7,10-diazadispiro[3.1.56.14]-dodecane-8,11-dione]",900
9,"NC(=O)C12CC([C@H]3C(=O)N(c4ncc(Cl)cc4F)CC(=O)N3Cc3ccc(C(F)F)cc3)(C1)C2 [Compound 821, (S)-3-(4-(5-chloro-3-fluoropyridin-2-yl)-3,6-dioxo-1-(4-(difluoro-methyl)benzyl)piperazin-2-yl)bicyclo[1.1.1]pentane-1-carboxamide]",2100
10,"NC(=O)C12CC([C@@H]3C(=O)N(c4ncc(Cl)cc4F)CC(=O)N3Cc3ccc(C(F)F)cc3)(C1)C2 [Compound 822, (R)-3-(4-(5-chioro-3-fluoropyridin-2-yl)-3,6-dioxo-1-(4-(difluoro-methyl)benzyl)piperazin-2-yl)bicyclo[1.1.1]pentane-1-carboxamide]",>39000
11,"Cc1ccc(CN2C(=O)CN(c3ncc(Cl)cc3F)C(=O)[C@@H]2C23CC(C(N)=O)(C2)C3)cc1 [Compound 823, (S)-3-(4-(5-chloro-3-fluoropyridin-2-yl)-1-(4-methylbenzyl)-3,6-dioxopiperazin-2-yl)bicyclo[1.1.1]pentane-1-carboxamide]",2300
12,"Cc1ccc(CN2C(=O)CN(c3ncc(Cl)cc3F)C(=O)[C@H]2C23CC(C(N)=O)(C2)C3)cc1 [Compound 824, (R)-3-(4-(5-chloro-3-fluoropyridin-2-yl)-1-(4-methylbenzyl)-3,6-dioxopiperazin-2-yl)-bicyclo[1.1.1]pentane-1-carboxamide]",>39000
13,"CC(=O)N1CC2(C1)CC1(C2)C(=O)N(c2ncc(Cl)cc2F)CC(=O)N1Cc1ccc(C(F)(F)F)cc1 [Compound 825, 2-acetyl-10-(5-chloro-3-fluoropyridin-2-yl)-7-(4-(trifluoromethyl)benzyl)-2,7,10-triazadispiro-[3.1.56.14]dodecane-8,11-dione]",700
14,"CC(=O)N1CC2(C1)CC1(C2)C(=O)N(c2ncc(Cl)cc2F)CC(=O)N1Cc1ccc(C(F)F)cc1 [Compound 826, 2-acetyl-10-(5-chloro-3-fluoropyridin-2-yl)-7-(4-(difluoromethyl)benzyl)-2,7,10-triazadispiro-[3.1.56.14]dodecane-8,11-dione]",1260
15,"CC(=O)N1CC2(C1)CC1(C2)C(=O)N(c2ncc(Cl)cc2F)CC(=O)N1Cc1ccc(F)cc1 [Compound 827, 2-acetyl-10-(5-chloro-3-fluoropyridin-2-yl)-7-(4-fluorobenzyl)-2,7,10-triazadispiro[3.1.56.14]-dodecane-8,11-dione]",2680
16,"O=CN1CC2(C1)CC1(C2)C(=O)N(c2ncc(Cl)cc2F)CC(=O)N1Cc1ccc(F)cc1 [Compound 828, 10-(5-chloro-3-fluoro-pyridin-2-yl)-7-(4-fluoro-benzyl)-8,11-dioxo-2,7,10-triazadispiro[3.1.56.14]-dodecane-2-carbaldehyde]",1370
17,"Cc1ccc(CN2C(=O)CN(c3ncc(Cl)cc3F)C(=O)C23CC2(CN(C=O)C2)C3)cc1 [Compound 830, 10-(5-chloro-3-fluoro-pyridin-2-yl)-7-(4-methyl-benzyl)-8,11-dioxo-2,7,10-triazadispiro[3.1.56.14]-dodecane-2-carbaldehyde]",1750
18,"CC(=O)N1CC2(C1)CC1(C2)C(=O)N(c2ncc(Cl)cc2F)CC(=O)N1Cc1ccc(Cl)cc1 [Compound 831, 2-acetyl-10-(5-chloro-3-fluoropyridin-2-yl)-7-(4-chlorobenzyl)-2,7,10-triazadispiro[3.1.56.14]-dodecane-8,11-dione]",530
19,"NC(=O)C12CC(C3C(=O)N(c4ncc(Cl)cc4F)CC(=O)N3Cc3ccc(Cl)cc3)(C1)C2 (stereo not drawn) [Compound 835, 3-(4-(5-chloro-3-fluoropyridin-2-yl)-1-(4-chlorobenzyl)-3,6-dioxopiperazin-2-yl)bicyclo[1.1.1]pentane-1-carboxamide]",1640

# More lines, now with the values ahead:
row,CDMF75 IC15 [nM],SMILES
1,1420,"NC(=O)C12CC([C@H]3C(=O)N(c4ncc(Cl)cc4F)CC(=O)N3Cc3ccc(Cl)cc3)(C1)C2 [Compound 836, (S)-3-(4-(5-chloro-3-fluoro-pyridin-2-yl)-1-(4-chloro-benzyl)-3,6-dioxo-piperazin-2-yl)bicyclo-[1.1.1]pentane-1-carboxamide]"
2,>39000,"NC(=O)C12CC([C@@H]3C(=O)N(c4ncc(Cl)cc4F)CC(=O)N3Cc3ccc(Cl)cc3)(C1)C2 [Compound 837, (R)-3-(4-(5-chloro-3-fluoro-pyridin-2-yl)-1-(4-chloro-benzyl)-3,6-dioxo-piperazin-2-yl)bicyclo-[1.1.1]pentane-1-carboxamide]"
3,3800,"O=C1C(C23CC(O)(C2)C3)N(Cc2ccc(C(F)(F)F)cc2)C(=O)CN1c1ncc(Cl)cc1F (stereo not drawn) [Compound 838, 1-(5-chloro-3-fluoropyridin-2-yl)-3-(3-hydroxybicyclo[1.1.1]pentan-1-yl)-4-(4-(trifluoromethyl)benzyl)piperazine-2,5-dione]"
4,2700,"O=C1C(C23CC(O)(C2)C3)N(Cc2ccc(Cl)cc2)C(=O)CN1c1ncc(Cl)cc1F (stereo not drawn) [Compound 841, 1-(5-chloro-3-fluoropyridin-2-yl)-4-(4-chlorobenzyl)-3-(3-hydroxybicyclo[1.1.1]-pentan-1-yl)piperazine-2,5-dione]"
5,8600,"O=C1C(C23CC(O)(C2)C3)N(Cc2ccc(F)cc2)C(=O)CN1c1ncc(Cl)cc1F (stereo not drawn) [Compound 844, 1-(5-chloro-3-fluoropyridin-2-yl)-4-(4-fluorobenzyl)-3-(3-hydroxybicyclo[1.1.1]-pentan-1-yl)piperazine-2,5-dione]"
6,5700,"O=C1C(C23CC(O)(C2)C3)N(Cc2ccc(C(F)F)cc2)C(=O)CN1c1ncc(Cl)cc1F (stereo not drawn) [Compound 849, 1-(5-chloro-3-fluoropyridin-2-yl)-4-(4-(difluoromethyl)-benzyl)-3-(3-hydroxy-bicyclo[1.1.1]pentan-1-yl)piperazine-2,5-dione]"
7,6500,"Cc1ccc(CN2C(=O)CN(c3ncc(Cl)cc3F)C(=O)C2C23CC(O)(C2)C3)cc1 (stereo not drawn) [Compound 852, 1-(5-chloro-3-fluoropyridin-2-yl)-3-(3-hydroxybicyclo-[1.1.1]pentan-1-yl)-4-(4-methylbenzyl)piperazine-2,5-dione]"
8,300,"Cc1cc(Cl)cnc1N1CC(=O)N(Cc2ccc(Cl)cc2)C2(CN(c3ccccn3)C2)C1=O [Compound 882, 8-(5-chloro-3-methyl-pyridin-2-yl)-5-(4-chloro-benzyl)-2-(pyridin-2-yl)-2,5,8-triazaspiro[3.5]-nonane-6,9-dione]"
9,400,"Cc1cc(Cl)cnc1N1CC(=O)N(Cc2ccc(F)cc2)C2(CN(c3ccccn3)C2)C1=O [Compound 883, 8-(5-chloro-3-methyl-pyridin-2-yl)-5-(4-fluoro-benzyl)-2-(pyridin-2-yl)-2,5,8-triazaspiro[3.5]-nonane-6,9-dione]"
10,500,"Cc1cc(Cl)cnc1N1CC(=O)N(Cc2ccc(Cl)cc2)C2(CN(c3ccc(F)cn3)C2)C1=O [Compound 884, 8-(5-chloro-3-methyl-pyridin-2-yl)-5-(4-chloro-benzyl)-2-(5-fluoropyridin-2-yl)-2,5,8-triazaspiro[3.5]-nonane-6,9-dione]"
11,500,"Cc1cc(Cl)cnc1N1CC(=O)N(Cc2ccc(F)cc2)C2(CN(c3ccc(F)cn3)C2)C1=O [Compound 885, 8-(5-chloro-3-methyl-pyridin-2-yl)-5-(4-fluoro-benzyl)-2-(5-fluoropyridin-2-yl)-2,5,8-triazaspiro-[3.5]nonane-6,9-dione]"
